Data published in US20240294495A1, “COMPOUNDS THAT MEDIATE PROTEIN DEGRADATION AND METHODS OF USE THEREOF” (Monte Rosa Therapeutics, Inc., priority 2021, published 2024).

Legend:
[1] = molecular target: T1, GSPT1 (Homo sapiens, UniProt P15170+Q96SW2); assay: Immunofluorescence assay for GSPT1 degradation in CAL-51 cells; type: cell-based; conditions: 6 h treatment, read-out: IF Class (GSPT1 degradation, DC50)
T1 construct: CAL-51 cells were purchased from DSMZ (cat. Number ACC302); endogenous in cells; host or cells: CAL-51 (DSMZ ACC302)
Procedure: The representative compounds were tested in an immunofluorescence assay for their activity to degrade GSPT1. CAL-51 cells were purchased from DSMZ (cat. Number ACC302), sub-cultured in 90% Dulbecco's MEM (4.5 g/L glucose, Gibco 11965)+10% heat inactivated FBS (BioConcept, 2-01F136I) and incubated at 37° C., 5% CO2. For the assay imaging microtiter plate Cell Carrier 96 Ultra (Perkin Elmer 6055302) were pre-coated with Fibronectin (Sigma F085, 30 μl at 0.2 μg/mL) in PBS (100 μL, Gibco 14190) for 45 min at room temperature, rinsed with PBS and CAL-51 cells (30K cells/well) were plated and let to adhere overnight. Cells were treated with compounds typically using a serial dilution ranging from 30 μM to 0.1 nM for 6 h. Compounds were stored at 10 mM DMSO stocks. Vehicle (DMSO), positive (CC-885, 10 μM) and rescue controls (positive control plus 0.2 μM bortezomib) were also included at this stage. Cells were subsequently rinsed with PBS and fixed in 10% Formalin solution (50 μl, Sigma HT5011)) for 20 min at room temperature. Following three consecutive PBS washes (100 μL), cells were permeabilized in 0.1% Triton X-100 in PBS (Sigma 93443, 50 μl) for 15 min at room temperature. Following three further PBS washes, 50 μl blocking buffer (1% BSA, Sigma A4503, in PBS) was added for 45 min for signal-to noise reduction. Primary antibody (human GSPT1, Sigma HPA052488) was diluted in blocking buffer (dil.1/300, 35 μL/well) and incubated with the cells overnight at 4° C. After three PBS washes, Alexa-fluor 488 coupled secondary antibodies (Invitrogen, A32731, dil.1/1000), Alexa-fluor 647-Phalloidin (Invitrogen, A22287, dil.1/200) and DAPI (Thermo, #62248, dil.1/1000) were diluted in blocking buffer and incubated with the samples for 2 h at room temperature. After three final PBS washes, samples were conserved in 100 μL PBS in the dark, until measurement. Image acquisition was performed on the Operetta High-Content Imager (Perkin-Elmer). Fluorescence intensity of […] (GSPT1), Alexa-Fluor 647 (Actin) and DAPI (Nucleus) were measured. For the determination of GSPT1 DC50 values, a custom algorithm implemented in the PerkinElmer image analysis software Harmony-Acapella® was developed. After user-defined setting of adjustment parameters, the analysis was run identically without human intervention for all image fields. DAPI staining of the nuclei was used to determine the location of cells using standard nuclei detection modules. Segmentation artifacts were removed by threshold-based filters for area, roundness and intensity. The outline of the cells was determined analogously from the sum of the normalized, smoothed DAPI and Actin channel, starting from each nucleus. The Alexa-Fluor 488 (GSPT1) signal intensity in each cell was finally measured, in order to obtain a Mean intensity per cell. GSPT1 degradation (DC50) was calculated after normalization to controls and data import in CDD vault Database, using non-linear regression.
(§1) In Table 2, each compound is assigned a class (HTRF class) indicating the ability for Cereblon binding by means of their HTRF IC50 values according to Example 3: A, B or C. According to the code, A represents an IC50 value of <100 nM, B represents an IC50 value>100 nM and <1000 nM, C represents an IC50 value>1000 nM. IF Class assigns each compound a code indicating the ability for GSPT1 degradation: A, B or C. According to the code, A represents a DC50 value of <30 nM, B represents a DC50 value>30 nM and <300 nM and C represents a DC50 value of >300 nM.

[2] = molecular target: CRBN-DDB1 (Homo sapiens, UniProt Q96SW2); assay: Compound binding to CRBN by HTRF assay; conditions: CRBN-DDB1 2.5 nM, Cy5-Thalidomide 100 nM probe, 30 min incubation; read-out: HTRF Class (Cereblon binding, HTRF IC50)
Procedure: Compound activity was monitored in a Homogenous Time-Resolved Fluorescence (HTRF) assay using 1-[5-({2-[2-(2-{[2-(2,6-dioxopiperidin-3-yl)-1,3-dioxo-2,3-dihydro-1H-isoindol-4-yl]oxy}acetamido)ethoxy]ethyl}carbamoyl)pentyl]-3,3-dimethyl-2-[(1E,3E)-5-[(2E)-1,3,3-trimethyl-5-sulfo-2,3-dihydro-1H-indol-2-ylidene]penta-1,3-dien-1-yl]-3H-indol-1-ium-5-sulfonate as a fluorescent probe. Biochemical assays were conducted in Greiner white 384 well HiBase plates (Cat. No 784075-25) in 10 μL total volume. A one pot detection solution of CRBN-DDB1 (2.5 nM), Anti-His Terbium Cryptate Gold (1×, PerkinElmer Cat. #: 61HI2TLB), and Cy5-Thalidomide (100 nM, Tenova Cat.: T52461) was prepared in 20 mM HEPES, 20 mM NaCl, 0.2 mM TCEP, 0.2 mM EDTA, and 0.005% Tween20 was dispensed to each assay plate. Compounds were stored in dry, ambient temperatures at 10 mM. A 10-point, 1:3 dilution series was prepared from 10 mM stock concentrations in Echo-compatible LDV plates. 10 nL of each compound dilution series was dispensed into assays wells using an Echo 650 (Labcyte inc. USA). 10 nL of 10 mM Lenalidomide was transferred into the active-control wells for the assay and 10 nL of DMSO was transferred into the neutral-control wells. The assay was then allowed to incubate for 30 min at ambient temperature after transferring compound. Plate measurements were taken on a Pherastar FSX (BMG Labtech, Germany) using the HTRF Red filter (Ex. 337 nm, em1: 620 nm, em2: 665 nm) (Flashes: 50, Integration time: 60-400 us, Z-height: 10 mm, Ratio-multiplier: 10,000). The HTRF signal was then subsequently normalized to the neutral and active controls. Analysis and IC50 values were derived using KNIME analytics (KNIME Zurich) transformation and fitting within Collaborative Drug Discovery (Collaborative Drug Discovery USA). Ki was derived from the geometric mean of the IC50 values using the Cheng-Prustoff transformation.
as §1

CRBN-DDB1, sequence (Q96SW2 whole entry): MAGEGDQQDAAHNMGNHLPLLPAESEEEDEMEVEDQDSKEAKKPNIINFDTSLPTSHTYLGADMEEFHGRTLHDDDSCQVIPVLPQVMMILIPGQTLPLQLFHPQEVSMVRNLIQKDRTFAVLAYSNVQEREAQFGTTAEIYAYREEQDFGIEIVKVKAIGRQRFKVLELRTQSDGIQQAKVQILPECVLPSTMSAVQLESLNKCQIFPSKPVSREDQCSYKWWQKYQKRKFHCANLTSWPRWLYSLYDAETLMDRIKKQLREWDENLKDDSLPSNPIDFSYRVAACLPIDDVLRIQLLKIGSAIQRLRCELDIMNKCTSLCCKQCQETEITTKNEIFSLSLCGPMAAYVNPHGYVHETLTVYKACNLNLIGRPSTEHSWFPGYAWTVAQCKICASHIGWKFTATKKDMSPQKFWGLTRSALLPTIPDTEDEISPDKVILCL
CRBN-DDB1, sequence (Q16531 whole entry partner): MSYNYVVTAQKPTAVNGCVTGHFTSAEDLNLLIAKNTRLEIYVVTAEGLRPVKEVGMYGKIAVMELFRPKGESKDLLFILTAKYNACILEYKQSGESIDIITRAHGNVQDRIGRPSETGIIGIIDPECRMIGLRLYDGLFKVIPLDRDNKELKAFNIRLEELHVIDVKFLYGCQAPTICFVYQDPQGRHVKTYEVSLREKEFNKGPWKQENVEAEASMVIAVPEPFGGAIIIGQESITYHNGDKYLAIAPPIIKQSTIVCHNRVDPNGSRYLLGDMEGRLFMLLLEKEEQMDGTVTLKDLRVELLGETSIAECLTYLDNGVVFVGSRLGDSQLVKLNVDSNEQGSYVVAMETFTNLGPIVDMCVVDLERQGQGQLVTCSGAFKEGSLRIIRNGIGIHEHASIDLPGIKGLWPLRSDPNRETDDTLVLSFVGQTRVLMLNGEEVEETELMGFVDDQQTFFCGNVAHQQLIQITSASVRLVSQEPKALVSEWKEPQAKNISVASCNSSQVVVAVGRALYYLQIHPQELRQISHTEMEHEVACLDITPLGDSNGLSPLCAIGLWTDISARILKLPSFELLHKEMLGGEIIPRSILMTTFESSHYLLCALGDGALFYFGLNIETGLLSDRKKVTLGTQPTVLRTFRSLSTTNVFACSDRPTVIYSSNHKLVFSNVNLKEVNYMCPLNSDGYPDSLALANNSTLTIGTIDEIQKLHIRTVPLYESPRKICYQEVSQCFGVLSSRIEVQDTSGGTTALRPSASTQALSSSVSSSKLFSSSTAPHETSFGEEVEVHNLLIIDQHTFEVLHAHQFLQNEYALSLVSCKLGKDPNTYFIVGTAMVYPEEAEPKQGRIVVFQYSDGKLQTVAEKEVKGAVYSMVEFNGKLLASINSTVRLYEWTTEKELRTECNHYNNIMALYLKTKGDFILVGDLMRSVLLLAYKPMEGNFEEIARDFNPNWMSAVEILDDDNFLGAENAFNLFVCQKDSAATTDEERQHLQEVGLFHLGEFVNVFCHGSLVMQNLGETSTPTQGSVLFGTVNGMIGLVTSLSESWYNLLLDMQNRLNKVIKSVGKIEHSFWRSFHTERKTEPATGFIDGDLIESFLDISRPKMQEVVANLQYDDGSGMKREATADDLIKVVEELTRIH
T1 sequence (P15170 whole entry): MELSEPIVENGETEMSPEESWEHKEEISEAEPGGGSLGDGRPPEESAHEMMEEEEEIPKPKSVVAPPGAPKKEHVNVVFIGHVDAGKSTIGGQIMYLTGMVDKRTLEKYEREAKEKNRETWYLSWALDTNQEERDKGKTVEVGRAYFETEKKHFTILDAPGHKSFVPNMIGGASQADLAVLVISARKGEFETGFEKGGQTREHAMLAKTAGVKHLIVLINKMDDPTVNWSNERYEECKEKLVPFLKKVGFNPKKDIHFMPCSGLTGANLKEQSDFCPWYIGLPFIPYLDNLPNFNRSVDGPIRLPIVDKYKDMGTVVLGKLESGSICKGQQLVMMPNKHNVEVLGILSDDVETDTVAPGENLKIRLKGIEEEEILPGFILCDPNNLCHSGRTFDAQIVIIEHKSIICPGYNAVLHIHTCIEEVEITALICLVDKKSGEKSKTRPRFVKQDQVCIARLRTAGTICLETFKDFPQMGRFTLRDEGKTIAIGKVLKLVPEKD
T1 sequence (Q96SW2 whole entry): as the sequence (Q96SW2 whole entry) above
T1 sequence (Q16531 2-1140 partner limits assumed): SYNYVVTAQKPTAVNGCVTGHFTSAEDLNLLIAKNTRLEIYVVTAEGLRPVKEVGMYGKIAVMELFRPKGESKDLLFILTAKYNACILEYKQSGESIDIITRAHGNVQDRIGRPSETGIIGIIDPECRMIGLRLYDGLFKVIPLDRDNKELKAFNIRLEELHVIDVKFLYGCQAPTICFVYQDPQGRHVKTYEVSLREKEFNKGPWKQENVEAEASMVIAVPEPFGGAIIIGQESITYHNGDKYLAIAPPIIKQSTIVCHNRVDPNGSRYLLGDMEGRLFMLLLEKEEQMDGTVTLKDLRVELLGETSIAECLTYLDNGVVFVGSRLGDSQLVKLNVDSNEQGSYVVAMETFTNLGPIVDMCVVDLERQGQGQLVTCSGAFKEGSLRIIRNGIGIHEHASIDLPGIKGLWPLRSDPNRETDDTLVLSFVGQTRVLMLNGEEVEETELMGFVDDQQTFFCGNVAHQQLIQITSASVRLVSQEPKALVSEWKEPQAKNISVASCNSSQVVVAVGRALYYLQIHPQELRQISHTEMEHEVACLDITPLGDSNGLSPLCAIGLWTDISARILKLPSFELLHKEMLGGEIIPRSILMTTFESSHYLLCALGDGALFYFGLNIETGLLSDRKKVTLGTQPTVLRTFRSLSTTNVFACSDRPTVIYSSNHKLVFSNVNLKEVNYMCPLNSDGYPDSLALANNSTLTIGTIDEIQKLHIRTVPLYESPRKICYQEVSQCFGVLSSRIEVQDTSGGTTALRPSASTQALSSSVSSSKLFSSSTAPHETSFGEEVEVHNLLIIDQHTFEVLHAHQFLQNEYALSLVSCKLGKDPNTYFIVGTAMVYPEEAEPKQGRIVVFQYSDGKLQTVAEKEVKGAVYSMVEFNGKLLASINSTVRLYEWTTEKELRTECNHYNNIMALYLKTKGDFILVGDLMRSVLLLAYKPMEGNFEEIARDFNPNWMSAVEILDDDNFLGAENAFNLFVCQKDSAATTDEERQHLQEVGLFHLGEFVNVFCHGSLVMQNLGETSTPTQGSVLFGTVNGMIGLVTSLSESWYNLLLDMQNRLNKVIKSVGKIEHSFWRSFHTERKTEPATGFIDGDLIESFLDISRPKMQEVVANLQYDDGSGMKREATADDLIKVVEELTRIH

SMILES	DC50 [1]	IC50 [2]
Cc1cc(C)nc(CC(=O)NC2CN(c3cc(F)c(C4CCC(=O)NC4=O)c(F)c3)C2)c1 (stereo not drawn) [Compound 51, 2-(4,6-dimethylpyridin-2-yl)-N-(1-(4-(2,6-dioxopiperidin-3-yl)-3,5-difluorophenyl)azetidin-3-yl) acetamide]	> 300 nM	100 to 1000 nM
Cc1cc(C)cc(C(F)(F)C(=O)NC2CN(c3cc(F)c(C4CCC(=O)NC4=O)c(F)c3)C2)c1 (stereo not drawn) [Compound 50, 2-(3,5-dimethylphenyl)-N-(1-(4-(2,6-dioxopiperidin-3-yl)-3,5-difluorophenyl)azetidin-3-yl)-2,2-difluoroacetamide]	> 300 nM	100 to 1000 nM
N#Cc1ccc(CC(=O)NC2CN(c3cc(F)c(C4CCC(=O)NC4=O)c(F)c3)C2)cc1Cl (stereo not drawn) [Compound 48, 2-(3-chloro-4-cyanophenyl)-N-(1-(4-(2,6-dioxopiperidin-3-yl)-3,5-difluorophenyl)azetidin-3-yl)acetamide]	> 300 nM	< 100 nM
Cc1cc(C)cc(CC(=O)NC2CN(c3cc(F)c(C4CCC(=O)NC4=O)c(F)c3)C2)c1 (stereo not drawn) [Compound 29, 2-(3,5-dimethylphenyl)-N-(1-(4-(2,6-dioxopiperidin-3-yl)-3,5-difluorophenyl)azetidin-3-yl)acetamide]	< 30 nM	100 to 1000 nM
O=C1CCC(c2c(F)cc(N3CC(NC(=O)Cc4ccc(F)c(F)c4)C3)cc2F)C(=O)N1 (stereo not drawn) [Compound 17, 2-(3,4-difluorophenyl)-N-(1-(4-(2,6-dioxopiperidin-3-yl)-3,5-difluorophenyl)azetidin-3-yl)acetamide]	> 300 nM	100 to 1000 nM
Cc1nc(CC(=O)NC2CN(c3cc(F)c(C4CCC(=O)NC4=O)c(F)c3)C2)ccc1Cl (stereo not drawn) [Compound 25, 2-(5-chloro-6-methylpyridin-2-yl)-N-(1-(4-(2,6-dioxopiperidin-3-yl)-3,5-difluorophenyl)azetidin-3-yl)acetamide]	> 300 nM	100 to 1000 nM
O=C1CCC(c2c(F)cc(N3CC(NC(=O)Cc4cccc(Cl)c4)C3)cc2F)C(=O)N1 (stereo not drawn) [Compound 32, 2-(3-chlorophenyl)-N-(1-(4-(2,6-dioxo-3-piperidyl)-3,5-difluoro-phenyl)azetidin-3-yl)acetamide]	30 to 300 nM	100 to 1000 nM
O=C1CCC(c2c(F)cc(N3CC(NC(=O)C45CC(c6ccccc6)(C4)C5)C3)cc2F)C(=O)N1 (stereo not drawn) [Compound 21, N-(1-(4-(2,6-dioxopiperidin-3-yl)-3,5-difluorophenyl)azetidin-3-yl)-3-phenylbicyclo [1.1.1]pentane-1-carboxamide]	> 300 nM	100 to 1000 nM
C[C@@H]1CCCN1c1ccc(CC(=O)NC2CN(c3cc(F)c(C4CCC(=O)NC4=O)c(F)c3)C2)cn1 (stereo partly drawn) [Compound 19, N-(1-(4-(2,6-dioxopiperidin-3-yl)-3,5-difluorophenyl)azetidin-3-yl)-2-(6-((R)-2-methylpyrrolidin-1-yl)pyridin-3-yl)acetamide]	> 300 nM	< 100 nM
Cc1cc(CC(=O)NC2CN(c3ccc(C4CCC(=O)NC4=O)c(Cl)c3)C2)ccc1Cl (stereo not drawn) [Compound 33, 2-(4-chloro-3-methylphenyl)-N-(1-(3-chloro-4-(2,6-dioxopiperidin-3-yl)phenyl)azetidin-3-yl)acetamide]	30 to 300 nM	100 to 1000 nM
O=C1CCC(c2c(F)cc(N3CC(CC(=O)Nc4ccc(F)c(OC(F)F)c4)C3)cc2F)C(=O)N1 (stereo not drawn) [Compound 6, N-(3-(difluoromethoxy)-4-fluorophenyl)-2-(1-(4-(2,6-dioxopiperidin-3-yl)-3,5-difluorophenyl)azetidin-3-yl)acetamide]	30 to 300 nM	100 to 1000 nM
O=C1CCC(c2c(F)cc(N3CC(NC(=O)Cc4ccc5c(c4)OCC5)C3)cc2F)C(=O)N1 (stereo not drawn) [Compound 24, 2-(2,3-dihydrobenzofuran-6-yl)-N-(1-(4-(2,6-dioxopiperidin-3-yl)-3,5-difluorophenyl)azetidin-3-yl)acetamide]	> 300 nM	100 to 1000 nM
